From patent US8889950B2, “Repression of AtGLR3.2 increases plant biomass” (The George Washington University, priority 2006, dated 2014)
Entries after “also recorded” stand apart in the source; their conditions may differ.

Key:
LR primordia = test: Microscopic analysis of LR primordia (LRP) formation and elongation; type: in vivo, Arabidopsis thaliana; conditions: 400 μM DNQX vs DMSO control
Description: B. DMSO control had fully emerged LR and more LRPs Arrows indicate an LRP that is inhibited, (A) or a fully emerged LR, (B).
(§1) The genetic and physiological analyses described above were complemented with pharmacological studies where the functions of AtGLRs were inhibited with iGLR specific inhibitors/antagonists. […] L-Glu is the bioactive ligand for iGLRs. […] Thus the inhibitors of AtGLRs can block LR elongation drastically and specifically. Furthermore DNQX mediated LR elongation inhibition is reversed by L-Glu.

[1] = tested on: L-Glu induced ion channel activity in plants; conditions: Mayerhoff et al. 2005. Planta. 222:418; cited from earlier work
[2] = tested on: AtGLRs (PR and LR elongation of seedlings); test: Root elongation of seedlings on plates with the iGLR antagonist DNQX; type: in vivo, Arabidopsis thaliana
Experimental: A. Control, B. DNQX treated. Note the lack of LR in DNQX-treated seedlings (b) versus LR in DMSO control. Both plates contained 10 μM KNO3. DNQX is an inhibitor (antagonist) of animal iGLRs and plant GLRs. The lateral root in the DMSO control is indicated by an arrow.
Note glutamate is the natural binding chemical (ligand) to animal iGLRS and puataive ligand for plant GLRs.
The present invention describes the function for AtGLRs in N sensing, absorption (FIG. 3, Forde, B G. 2002. Annu. Rev. Plant Biol. 53:203), assimilation (FIG. 12), plant growth and development (FIG. 11, 13). These claims were validated with pharmacological (FIG. 6-9), physiological (FIG. 10, 11, 13) and immunobot analyses of N assimilatory enzymes (FIG. 12).
as §1

DR5::GUS = test: Histochemical GUS assay in auxin responsive reporter DR5::GUS seedlings; type: in vivo, Arabidopsis thaliana
Experimental: DR5::GUS reporter was grown for 10 days and subjected to histochemical GUS staining for 10 hrs. The development of blue color indicates the detection of the presence of auxins that function in the regulation and formation of lateral roots
To assess the role of auxins in the AtGLR response, the effect of DNQX on auxin levels were evaluated. Auxin responsive reporter plants carrying the expression system DR5::GUS were used in the histochemical assays. […] Similar results were reported in phosphate starvation studies (Nacry et al. 2005 Plant Physiol. 138:2061).

For `O=c1[nH]c2cc([N+](=O)[O-])c([N+](=O)[O-])cc2[nH]c1=O` [DNQX, 6,7 dinitroquinoxaline-2-3-[1H,4H]-dione], the “Further elongation of LR primordia” value (LR primordia) is given as “further elongation of primordia is inhibited; also recorded: inhibits number of LRP formed and their elongation”, the “Number of LRP formed (LR primordia initiation)” value (LR primordia) is given as “reduced the number of LR primordia initiation; also recorded: inhibits number of LRP formed” and the “L-Glu induced ion channel activity in plants” value [1] is given as “block L-Glu induced ion channel activity”. The “PR and LR growth and elongation” value ([2]; DNQX at 400 μM, DMSO control, plates with 10 μM KNO3) was “inhibit PR and LR elongation; also recorded: inhibit LR growth and elongation”, the “Reversal of DNQX mediated inhibition by coincubation with L-Glu” value ([2]; coincubation with 10 mM L-glutamate) was “restored to normal growth; also recorded: can be reversed” and the “Reversibility of DNQX mediated PR and LR inhibition” value ([2]; seedlings transferred to a media without DNQX) was “restored to normal growth; also recorded: reversibly and temporarily”. For the same compound, the “Auxin levels in PR and LR apex/primordia (DR5::GUS expression)” value (DR5::GUS; 400 μM DNQX, grown 10 days, GUS staining for 10 hrs, vs control plants) was “higher levels of auxins in PR and LR primordia; also recorded: hyper accumulation of auxins” and the “LR and PR elongation of DR5::GUS seedlings” value (DR5::GUS; incubated with 400 μM DNQX) was “inhibition of LR and PR elongation”.
